# Results reported in ChEMBL document CHEMBL4616601, “Meeting organometallic chemistry with drug discovery: CH activation enabled discovery of a new ring system of 12H-Indazolo[2,1-a]cinnolin-12-ones with anti-proliferation activity” (Bioorg Med Chem Lett, 2020).
# Activity calls are given as the source filed them. How the calls were made is not given here.
# Legend:
# PC-3 [1] = experiment: Antiproliferative activity against human PC3 cells assessed as inhibition of cell viability at 0.5 to 5 uM after 72 hrs by CCK8 assay; format: functional, cell-based
# PC-3 [2] = experiment: Antiproliferative activity against human PC3 cells at 0.5 uM assessed as inhibition of cell viability after 72 hrs by CCK-8 assay relative to control; format: functional; conditions: PC-3, 72 h
# PC-3 [3] = experiment: Antiproliferative activity against human PC3 cells assessed as reduction in cell viability after 72 hrs by CCK8 assay; format: functional, cell-based; conditions: PC-3, 72 h
# PANC-1 = experiment: Antiproliferative activity against human PANC1 cells assessed as reduction in cell viability after 72 hrs; format: functional, cell-based; conditions: PANC-1, 72 h
# SW1990 = experiment: Antiproliferative activity against human SW1990 cells assessed as reduction in cell viability; format: functional, cell-based
# SK-BR-3 = experiment: Antiproliferative activity against human SKBR3 cells assessed as reduction in cell viability; format: functional, cell-based
# HCT-116 = experiment: Antiproliferative activity against human HCT116 cells assessed as reduction in cell viability; format: functional, cell-based
# NCI-H1299 = experiment: Antiproliferative activity against human NCI-H1299 cells assessed as reduction in cell viability; format: functional, cell-based
# HepG2 = experiment: Antiproliferative activity against human HepG2 cells assessed as reduction in cell viability; format: functional, cell-based
# HeLa = experiment: Antiproliferative activity against human HeLa cells assessed as reduction in cell viability; format: functional, cell-based
# DU-145 = experiment: Antiproliferative activity against human DU145 cells assessed as reduction in cell viability; format: functional, cell-based
# PC-3 [4] = experiment: Inhibition of colony formation in human PC3 cells at 50 nM after 1 week relative to control; format: functional; conditions: PC-3, 168 h
# PC-3 [5] = experiment: Inhibition of colony formation in human PC3 cells at 250 nM after 1 week relative to control; format: functional; conditions: PC-3, 168 h
# PC-3 [6] = experiment: Inhibition of colony formation in human PC3 cells after 1 week; format: functional, cell-based
# PC-3 [7] = experiment: Induction of cell cycle arrest in human PC3 cells assessed as accumulation at G2/M phase after 24 hrs by flow cytometry; format: functional, cell-based
# PC-3 [8] = experiment: Induction of cell cycle arrest in human PC3 cells assessed as accumulation at G1 phase at 50 nM after 24 hrs by flow cytometry (reference value: 56.46%); format: functional
# PC-3 [9] = experiment: Induction of cell cycle arrest in human PC3 cells assessed as accumulation at S phase at 50 nM after 24 hrs by flow cytometry (reference value: 24.73%); format: functional
# PC-3 [10] = experiment: Induction of cell cycle arrest in human PC3 cells assessed as accumulation at G2/M phase at 50 nM after 24 hrs by flow cytometry (reference value: 18.81%); format: functional
# PC-3 [11] = experiment: Induction of cell cycle arrest in human PC3 cells assessed as accumulation at G1 phase at 100 nM after 24 hrs by flow cytometry (reference value: 56.46%); format: functional
# PC-3 [12] = experiment: Induction of cell cycle arrest in human PC3 cells assessed as accumulation at S phase at 100 nM after 24 hrs by flow cytometry (reference value: 24.73%); format: functional
# PC-3 [13] = experiment: Induction of cell cycle arrest in human PC3 cells assessed as accumulation at G2/M phase at 100 nM after 24 hrs by flow cytometry (reference value: 18.81%); format: functional
# PC-3 [14] = experiment: Induction of cell cycle arrest in human PC3 cells assessed as accumulation at G1 phase at 250 nM after 24 hrs by flow cytometry (reference value: 56.46%); format: functional
# PC-3 [15] = experiment: Induction of cell cycle arrest in human PC3 cells assessed as accumulation at S phase at 250 nM after 24 hrs by flow cytometry (reference value: 24.73%); format: functional
# PC-3 [16] = experiment: Induction of cell cycle arrest in human PC3 cells assessed as accumulation at G2/M phase at 250 nM after 24 hrs by flow cytometry (reference value: 18.81%); format: functional
# PC-3 [17] = experiment: Induction of cell cycle arrest at G2/M phase in human PC3 cells assessed as increase in cyclin B1 expression after 24 hrs by Western blot analysis; format: functional, cell-based
# PC-3 [18] = experiment: Induction of cell cycle arrest at G2/M phase in human PC3 cells assessed as increase in CDC2 expression after 24 hrs by Western blot analysis; format: functional, cell-based
# PC-3 [19] = experiment: Induction of apoptosis in human PC3 cells assessed as viable cells at 50 nM after 24 hrs by Annexin V-FITC/propidium iodide staining-based flow cytometry (reference value: 75.33%); format: functional; conditions: PC-3, 24 h, read-out: Activity
# PC-3 [20] = experiment: Induction of apoptosis in human PC3 cells assessed as early apoptotic cells at 50 nM after 24 hrs by Annexin V-FITC/propidium iodide staining-based flow cytometry (reference value: 11.88%); format: functional
# PC-3 [21] = experiment: Induction of apoptosis in human PC3 cells assessed as late apoptotic cells at 50 nM after 24 hrs by Annexin V-FITC/propidium iodide staining-based flow cytometry (reference value: 12.21%); format: functional
# PC-3 [22] = experiment: Induction of apoptosis in human PC3 cells assessed as necrotic cells at 50 nM after 24 hrs by Annexin V-FITC/propidium iodide staining-based flow cytometry (reference value: 0.58%); format: functional
# PC-3 [23] = experiment: Induction of apoptosis in human PC3 cells assessed as viable cells at 100 nM after 24 hrs by Annexin V-FITC/propidium iodide staining-based flow cytometry (reference value: 75.33%); format: functional; conditions: PC-3, 24 h, read-out: Activity
# PC-3 [24] = experiment: Induction of apoptosis in human PC3 cells assessed as early apoptotic cells at 100 nM after 24 hrs by Annexin V-FITC/propidium iodide staining-based flow cytometry (reference value: 11.88%); format: functional
# PC-3 [25] = experiment: Induction of apoptosis in human PC3 cells assessed as late apoptotic cells at 100 nM after 24 hrs by Annexin V-FITC/propidium iodide staining-based flow cytometry (reference value: 12.21%); format: functional
# PC-3 [26] = experiment: Induction of apoptosis in human PC3 cells assessed as necrotic cells at 100 nM after 24 hrs by Annexin V-FITC/propidium iodide staining-based flow cytometry (reference value: 0.58%); format: functional
# PC-3 [27] = experiment: Induction of apoptosis in human PC3 cells assessed as viable cells at 250 nM after 24 hrs by Annexin V-FITC/propidium iodide staining-based flow cytometry (reference value: 75.33%); format: functional; conditions: PC-3, 24 h, read-out: Activity
# PC-3 [28] = experiment: Induction of apoptosis in human PC3 cells assessed as early apoptotic cells at 250 nM after 24 hrs by Annexin V-FITC/propidium iodide staining-based flow cytometry (reference value: 11.88%); format: functional
# PC-3 [29] = experiment: Induction of apoptosis in human PC3 cells assessed as late apoptotic cells at 250 nM after 24 hrs by Annexin V-FITC/propidium iodide staining-based flow cytometry (reference value: 12.21%); format: functional
# PC-3 [30] = experiment: Induction of apoptosis in human PC3 cells assessed as necrotic cells at 250 nM after 24 hrs by Annexin V-FITC/propidium iodide staining-based flow cytometry (reference value: 0.58%); format: functional
# PC-3 [31] = experiment: Induction of apoptosis in human PC3 cells after 24 hrs by Annexin V-FITC/propidium iodide staining-based flow cytometry; format: functional, cell-based
# PC-3 [32] = experiment: Induction of apoptosis in human PC3 cells assessed as reduction in caspase-3 expression after 24 hrs by Western blot analysis; format: functional, cell-based
# PC-3 [33] = experiment: Induction of apoptosis in human PC3 cells assessed as reduction in PARP expression level after 24 hrs by Western blot analysis; format: functional, cell-based
# PC-3 [34] = experiment: Induction of apoptosis in human PC3 cells assessed as increase in PARP cleavage after 24 hrs by Western blot analysis; format: functional, cell-based
structure (smiles),measurement,setting,value
CCOC(=O)c1c(C)n2c3ccccc3c(=O)n2c2ccc3c(c12)OCO3,Activity,PC-3 [1],Active
same,inhibition at 0.5 µM,PC-3 [2],62.8%
same,IC50,PC-3 [3],159 nM
same,IC50,PANC-1,197 nM
same,IC50,SW1990,41 to 188 nM
same,IC50,SK-BR-3,41 to 188 nM
same,IC50,HCT-116,41 to 188 nM
same,IC50,NCI-H1299,41 to 188 nM
same,IC50,HepG2,41 to 188 nM
same,IC50,HeLa,41 to 188 nM
same,IC50,DU-145,41 to 188 nM
same,inhibition at 0.05 µM,PC-3 [4],85%
same,inhibition at 0.25 µM,PC-3 [5],98%
same,inhibition,PC-3 [6],Dose-dependent effect
same,Activity,PC-3 [7],Dose-dependent effect
same,Activity,PC-3 [8],55.12%
same,Activity,PC-3 [9],23.43%
same,Activity,PC-3 [10],21.45%
same,Activity,PC-3 [11],46.89%
same,Activity,PC-3 [12],22.46%
same,Activity,PC-3 [13],30.65%
same,Activity,PC-3 [14],14.06%
same,Activity,PC-3 [15],24.16%
same,Activity,PC-3 [16],61.78%
same,Activity,PC-3 [17],Dose-dependent effect
same,Activity,PC-3 [18],Dose-dependent effect
same,viability at 0.05 µM,PC-3 [19],34.7%
same,Activity,PC-3 [20],25.82%
same,Activity,PC-3 [21],37.02%
same,Activity,PC-3 [22],2.48%
same,viability at 0.1 µM,PC-3 [23],13%
same,Activity,PC-3 [24],18.52%
same,Activity,PC-3 [25],56.27%
same,Activity,PC-3 [26],12.2%
same,viability at 0.25 µM,PC-3 [27],4.73%
same,Activity,PC-3 [28],27.88%
same,Activity,PC-3 [29],62.42%
same,Activity,PC-3 [30],4.97%
same,Activity,PC-3 [31],Dose-dependent effect
same,Activity,PC-3 [32],Dose-dependent effect
same,Activity,PC-3 [33],Dose-dependent effect
same,Activity,PC-3 [34],Dose-dependent effect
